Measurements from ChEMBL document CHEMBL5257058, “Passive Membrane Permeability of Sizable Acyclic β-Hairpin Peptides” (ACS Med Chem Lett, 2023).
In brackets after ≈: the same amount, converted by molar mass. Where a SMILES comes first, the peptide text is derived from it. Bridges are numbered along the chain shown (N, C = ends).

Assays:
[1] = Kinetic solubility of compound in phosphate buffer at pH 7.4 by UV analysis; assay type: physicochemical; settings: read-out: Kinetic_solubility
[2] = Octanol/buffer partition coefficient, logD of the compound at pH 7.4 incubated for 24 hrs by shake flask method based UV analysis; assay type: physicochemical
[3] = Apparent membrane permeability of the compound in PBS buffer at pH 7.4 measured after 24 hrs by PAMPA assay; assay type: ADME
[4] = Retention time of the compound by RP-HPLC analysis; assay type: physicochemical
[5] = Kinetic solubility of the compound by RP-HPLC analysis

Row | Molecule | solubility kinetic [1] [µM] | logD at 24 h [2] | Papp at 24 h [3] [×10⁻⁶ cm/s] | Retention_time [4] [min] | kinetic solubility [5] [µM] | Retention time [4] [min]
1 | CSCC[C@@H]1NC(=O)[C@H](CC(=O)O)NC(=O)[C@H](Cc2ccccc2)NC(=O)[C@H](CCCNC(=N)N)NC(=O)[C@H](Cc2ccc(O)cc2)NC(=O)[C@H](CC(=O)O)NC(=O)[C@H](CCCNC(=N)N)NC(=O)[C@H](CCCNC(=N)N)NC(=O)[C@H](C)NC(=O)[C@@H](NC(=O)[C@H](Cc2c[nH]c3ccccc23)NC(=O)[C@@H](N)CCCNC(=N)N)CSSC[C@@H](C(=O)N[C@@H](Cc2c[nH]c3ccccc23)C(=O)N[C@@H](CCC(=O)O)C(=O)O)NC(=O)[C@H](Cc2c[nH]c3ccccc23)NC(=O)[C@H](Cc2ccc(O)cc2)NC(=O)[C@H](CC(=O)O)NC(=O)[C@H](Cc2ccccc2)NC(=O)CNC1=O (H-RWCARRDYRFDMGFDYWCWE-OH; disulfide 3-18) | 10 (≈ 27.6 µg/mL) | -0.6 | 3.71 | 22 | – | –
2 | CC(=O)CC(c1ccccc1)c1c(O)c2ccccc2oc1=O (stereo not given) [WARFARIN] | – | – | 7.06 | – | – | –
3 | H-RGVARRDYRGDPGFDYWHWE-OH | 18000 | -1.9 | 0.26 | 18.8 | – | –
4 | H-RWVARAYGNYGYIDVWHWE-OH | 70 | -1.3 | 0.38 | 21.9 | – | –
5 | H-RWVARAYGNYWYIDVWHWE-OH | 2 | 0.6 | 4.15 | 24.1 | – | –
6 | H-RWVAREGGWFGELAFNYWVWE-OH | 260 | -0.5 | 2.05 | 21.2 | – | –
7 | H-RWVAREGMNTDGYFDYWHWE-OH | 690 | 0.3 | 0.02 | 21.1 | – | –
8 | H-RWVAREGMNTDWYFDYWHWE-OH | 20 | 1.2 | 0.42 | 23.3 | – | –
9 | H-RWVARRDYRFDMGFDYWHWE-OH | 10 | -0.5 | 2.55 | 21.8 | – | –
10 | H-RWVARRDYRFDMGFDYWVWE-OH | 10 | 0.2 | 2.18 | 23.1 | – | –
11 | H-RWVARRDYRFDMGFNYWVWE-OH | 50 | 0.7 | 4.04 | 22.6 | – | –
12 | H-RWVARRDYRGDMGFDYWHWE-OH | 40 | 0.7 | 0.07 | 20.3 | – | –
13 | H-RWVARRDYRGDMGFDYWVWE-OH | 20 | 0.6 | 1.59 | 21.5 | – | –
14 | H-RWVARRDYRGDMGFNYWVWE-OH | 60 | -0.8 | 0.02 | 20.9 | – | –
15 | H-RWVKRRDYRFDMGFDYWVWE-OH | 20 | -0.4 | 0.14 | – | 21900 | –
16 | H-RWVKRRDYRGDMGFDYWVWE-OH | 1800 | -1.3 | 0.02 | 19.5 | – | –
17 | H-RWVVRRDYRFDMGFDYWVWE-OH | 20 | -1.1 | 2.61 | 23 | – | –
18 | H-RWVVRRDYRGDMGFDYWVWE-OH | 30 | -0.9 | 0.04 | – | – | 20.6
19 | H-RWVWRDLDIATTRDYWVWE-OH | 140 | 0.8 | 0.2 | 23.2 | – | –
20 | H-RWVWRDYRFDMGFDWVWE-OH | 20 | 0.1 | 5.28 | 25.2 | – | –
21 | H-RWVWRDYRGDMGFDWVWE-OH | 20 | 0.9 | 0.01 | 23.3 | – | –
22 | H-RWVWSPDSSGVAYWVWE-OH | 530 | 0.9 | 0.09 | 22.8 | – | –
